Data taken from patent US4536335A, “Carbapenem antibiotics” (Bristol-Myers Company, priority 1983, dated 1985).
Converted amounts (≈) assume the structure as drawn. Like-named read-outs stand apart in the source and are kept apart here.

Assays:
[1] = Half-life in phosphate buffer solution; type: physicochemical
Description: A solution of para-nitrobenzyl 3-[2-(N-methylthiomorpholinium diphenylphosphate)ethylthio]-6α-[1'-(R)-hydroxyethyl]-7-oxo-1-azabicyclo[3.2.0]hept-2-ene-2-carboxylate (1.31 g, 1.76 mmol) in 0.1 M pH 7.4 phosphate buffer (48.8 mL), tetrahydrofuran (20 mL) and diethyl ether (20 mL) was hydrogenated over 10% pd/C (1.5 g) in a Parr shaker for 1 h at 40 psi. The reaction mixture was diluted with diethyl ether (40 mL) and the phases were separated. The organic phase was washed with water (2×5 mL). The aqueous phases were combined, filtered through a #52 hardened filter paper, washed with diethyl ether (2×20 mL) and pumped under vacuum. The aqueous solution was poured on a silica gel reverse phase column and the desired carbapenem was eluted with 5% acetonitrile-water.
To a solution of p-nitrobenzyl (5R,6S)-3-[2-(1-methylmorpholino)ethylthio]-6-[(R)-1-hydroxyethyl]-7-oxo-1-azabicyclo[3.2.0]hept-2-ene-2-carboxylate diphenylphosphate (0.360 g, 0.49 mmol) in 13 mL of phosphate buffer (0.05 M pH 7.4) was added 0.36 g of 10% palladium-on-charcoal, 20 mL of tetrahydrofuran and 20 mL of diethyl ether. This mixture was hydrogenated (Parr) at 32 psi for 1 h. The mixture was filtered through Celite and the filter pad was washed with H2 O and diethyl ether. The aqueous phase was separated and the pH was adjusted to 7.0 with additional pH 7.4 phosphate buffer. After removing residual organic solvents in vacuo the aqueous solution was applied to a C18 reverse-phase column.
To a solution of (5R,6S)paranitrobenzyl 3-[2-(1,4-dimethyl-1-piperazinium)ethylthio]-6-[1-(R)-hydroxyethyl]-7-oxo- 1-azabicyclo[3.2.0]hept-2-ene-2-carboxylate diphenylphosphate (0.47 g, 0.623 mmol) in wet tetrahydrofuran (25 mL) was added diethyl ether (25 mL), potassium phosphate monobasic-sodium hydroxide buffer (13 mL, pH 7.22) and 10% palladium on charcoal (0.47 g). The resulting mixture was hydrogenated at 23° C. under 40 psi for 1 h. The two layers were separated and the organic layer was extracted with water (2×7 mL).
To a cold (-10° C.) solution of (5R,6S)-3-[2 -(N-methyl-thiomorpholinium)ethylthio]-6-[1-(R)-hydroxyethyl]-7-oxo-1-azabicyclo(3.2.0)-hept-2-ene-2-carboxylate (608 mg, 1.65 mmol) in a 1:1 mixture of acetonitrile-water (9 mL) was added m-chloroperbenzoic acid (334.8 mg, 1.65 mmol) in small portion over a 1 hour period. The mixture was then diluted with water (15 mL) and washed with diethyl ether (3×15 mL).
A mixture of (5R,6S) paranitrobenzyl 3-[2-(1,4,4-trimethyl-1-piperazinium)ethylthio]-6-[1R-hydroxyethyl]-7-oxo- 1-azabicyclo(3.2.0)hept-2-ene-2-carboxylate bischloride (0.40 g, 0.68 mmol), phosphate buffer (30 mL, 0.05M, pH 7.0), tetrahydrofuran (10 mL), ether (30 mL) and 10% palladium on charcoal (0.40 g) was hydrogenated at 23° C. under 35 psi for 1 h. The two phases were separated. The organic phase was extracted with water (10 mL).

[2] = tested on: S. pneumoniae A-9585; assay: In vitro MIC, tube dilution; type: cell-based; conditions: overnight incubation at 37° C., additional data table
[3] = tested on: S. pyogenes A-9604; assay: In vitro MIC, tube dilution; type: cell-based; conditions: Nutrient Broth, overnight incubation at 37° C., additional data table
[4] = tested on: S. aureus A-9537; assay: In vitro MIC, tube dilution; type: cell-based; conditions: overnight incubation at 37° C., additional data table; for MIC: Staphylococcus aureus
[5] = tested on: S. aureus A-9606 (Pen-res.); assay: In vitro MIC, tube dilution; type: cell-based; conditions: Nutrient Broth, overnight incubation at 37° C., additional data table
[6] = tested on: S. faecalis A20688; assay: In vitro MIC, tube dilution; type: cell-based; conditions: Nutrient Broth, overnight incubation at 37° C., additional data table
[7] = tested on: E. coli A15119; assay: In vitro MIC, tube dilution; type: cell-based; conditions: Nutrient Broth, overnight incubation at 37° C., additional data table
[8] = tested on: E. coli A20341-1; assay: In vitro MIC, tube dilution; type: cell-based; conditions: Nutrient Broth, overnight incubation at 37° C., additional data table
[9] = tested on: K. pneumoniae A-9664; assay: In vitro MIC, tube dilution; type: cell-based; conditions: Nutrient Broth, overnight incubation at 37° C., additional data table
[10] = tested on: K. pneumoniae A20468; assay: In vitro MIC, tube dilution; type: cell-based; conditions: Nutrient Broth, overnight incubation at 37° C., additional data table
[11] = tested on: P. mirabilis A-9900; assay: In vitro MIC, tube dilution; type: cell-based; conditions: Nutrient Broth, overnight incubation at 37° C., additional data table
[12] = tested on: P. vulgaris A21559; assay: In vitro MIC, tube dilution; type: cell-based; conditions: Nutrient Broth, overnight incubation at 37° C., additional data table
[13] = tested on: P. morganii A15153; assay: In vitro MIC, tube dilution; type: cell-based; conditions: Nutrient Broth, overnight incubation at 37° C., additional data table
[14] = tested on: P. rettgeri A22424; assay: In vitro MIC, tube dilution; type: cell-based; conditions: Nutrient Broth, overnight incubation at 37° C., additional data table
[15] = tested on: S. marcescens A20019; assay: In vitro MIC, tube dilution; type: cell-based; conditions: Nutrient Broth, overnight incubation at 37° C., additional data table
[16] = tested on: E. cloacae A-9656; assay: In vitro MIC, tube dilution; type: cell-based; conditions: Nutrient Broth, overnight incubation at 37° C., additional data table
[17] = tested on: P. aeruginosa A-9843A; assay: In vitro MIC, tube dilution; type: cell-based; conditions: Nutrient Broth, overnight incubation at 37° C., additional data table
[18] = tested on: P. aeruginosa A21213; assay: In vitro MIC, tube dilution; type: cell-based; conditions: Nutrient Broth, overnight incubation at 37° C., additional data table
[19] = tested on: E. cloacae A-9659; assay: In vitro MIC, tube dilution; type: cell-based; conditions: Nutrient Broth, overnight incubation at 37° C., additional data table
Excerpt: N-formimidoyl thienamycin was included as a comparison compound.

[20] = tested on: P. aeruginosa A-9843a; assay: Protective effect in the intramuscular treatment of infected mice (PD50); type: in vivo; conditions: Pseudomonas aeruginosa, A9843A, im, read-out: PD50/treatment, P. aeruginosa A9843A
Description: The PD50 (dose in mg/kg required to give protection to 50% of the infected mice) is indicated.
Treatment Schedule: Mice were treated i.m. with drugs 0 and 2 hours post-infection; 5 mice per dose were used for each test
*For compound of Ex. 2, mice were infected i.p. with 2 × 10^9
compounds of Ex. 4 and 5, mice were infected i.p. with ~9 ×
were treated i.m. with drugs 0 and 2 h postinfection.

[21] = Blood levels in mice after intramuscular administration; type: in vivo; conditions: mouse, blood, im, 20 mg/kg, intramuscular dose of 20 mg/kg; for AUC: read-out: Blood AUC; for half-life: read-out: Blood T1/2
Excerpt: Compounds were solubilized in 0.1 M phosphate buffer pH 7. Values are fro
a single test; 4 mice used per compound.
*t1/2 refers to halflife in minutes
**AUC refers to the area under the blood concentrationtime curve
(§1) Also shown is the urinary recovery in the mice.
Compounds were solubilized in 0.1 M phosphate buffer, pH 7.
Values based on a single test; 4 mice per compound.
*T1/2 refers to halflife in minutes

[22] = Urinary recovery after intramuscular administration to mice; type: in vivo; conditions: mouse, urine, im, 20 mg/kg, intramuscular dose of 20 mg/kg, 0-6 hour collection, read-out: Urine Recovery
Description: Compounds were solubilized in 0.1 M phosphate buffer pH 7. Values are from a single test; 4 mice per compound.
as §1
***Recovery based on 0-6 hour collection

C[C@@H](O)[C@H]1C(=O)N2C(C(=O)O)=C(SCC[N+]3(C)CC[N+](C)(C)CC3)C[C@H]12 [Example 6, (5R,6S)-3-[2-(1,4,4-Trimethyl-1-piperazinium)-ethylthio]-6-(1R-hydroxyethyl]-7-oxo-1-azabicyclo(3.2.0)hept-2-ene-2-carboxylate chloride]
half-life ([1]; phosphate buffer, pH 7.4, concentration of 10^-4 M in phosphate buffer pH 7.4 at 36.8° C., read-out: t1/2 (solution stability) (converted)): 9.8 h

C[C@@H](O)[C@H]1C(=O)N2C(C(=O)[O-])=C(SCC[N+]3(C)CC[S+]([O-])CC3)C[C@H]12 (single isomer, unassigned) [Ex. 5 comp. A]
MIC S. pneumoniae A-9585 ([2]; Nutrient Broth): 0.004 µg/mL (≈ 0.0103 µM)
MIC S. pyogenes A-9604 ([3]; tube dilution): 0.004 µg/mL (≈ 0.0103 µM)
MIC S. aureus-50% serum A-9537 ([4]; 50% serum, tube dilution): 0.03 µg/mL (≈ 0.0772 µM)
MIC S. aureus A-9537 ([4]; tube dilution, Nutrient Broth): 0.016 µg/mL (≈ 0.0412 µM)
MIC S. aureus (Pen-res.) A-9606 [5]: 0.03 µg/mL (≈ 0.0772 µM)
MIC S. faecalis A20688 ([6]; tube dilution): 0.05 µg/mL (≈ 0.129 µM)
MIC E. coli A15119 ([7]; tube dilution): 0.03 µg/mL (≈ 0.0772 µM)
MIC E. coli A20341-1 ([8]; tube dilution): 0.03 µg/mL (≈ 0.0772 µM)
MIC K. pneumoniae A-9664 ([9]; tube dilution): 0.06 µg/mL (≈ 0.154 µM)
MIC K. pneumoniae A20468 ([10]; tube dilution): 0.13 µg/mL (≈ 0.335 µM)
MIC P. mirabilis A-9900 ([11]; tube dilution): 0.13 µg/mL (≈ 0.335 µM)
MIC P. vulgaris A21559 ([12]; tube dilution): 0.06 µg/mL (≈ 0.154 µM)
MIC M. morganii A15153 ([13]; tube dilution): 0.13 µg/mL (≈ 0.335 µM)
MIC P. rettgeri A22424 ([14]; tube dilution): 0.25 µg/mL (≈ 0.643 µM)
MIC S. marcescens A20019 ([15]; tube dilution): 0.06 µg/mL (≈ 0.154 µM)
MIC E. cloacae A-9656 ([16]; tube dilution): 0.13 µg/mL (≈ 0.335 µM)
MIC P. aeruginosa A-9843a [17]: 32 µg/mL (≈ 82.4 µM)
MIC P. aeruginosa A21213 ([18]; tube dilution): 16 µg/mL (≈ 41.2 µM)
MIC E. cloacae A-9659 ([19]; tube dilution): 0.13 µg/mL (≈ 0.335 µM)
ED50 [20]: > 12.5 mg/kg
Cmax [21]: 10200 ng/mL
AUC [21]: 3100 ng·h/mL
half-life [21]: 7 min
dose excreted at 6 h [22]: 14 ± 1%
half-life ([1]; 0.065 m phosphate buffer, pH 7.4, 0.065 M, pH 7.4 phosphate buffer, 37° C., read-out: T 1/2 (solution stability) (converted)): 12 h

C[C@@H](O)[C@H]1C(=O)N2C(C(=O)[O-])=C(SCC[N+]3(C)CCOCC3)C[C@H]12 [Example 3, (5R,6S)-3-[2-(1-methylmorpholino)ethylthio]-6-[(R)-1-hydroxyethyl]-7-oxo-1-azabicyclo[3.2.0]hept-2-ene-2-carboxylate]
MIC ([2]; Streptococcus pneumoniae, A9585, Nutrient Broth): 0.03 µg/mL (≈ 0.0842 µM)
MIC ([3]; Streptococcus pyogenes, A9604, tube dilution): 0.03 µg/mL (≈ 0.0842 µM)
MIC ([4]; A9537, 50% serum, tube dilution, read-out: MIC S. aureus-50% serum A-9537): 0.13 µg/mL (≈ 0.365 µM)
MIC ([4]; A9537, tube dilution, Nutrient Broth, read-out: MIC S. aureus A-9537): 0.03 µg/mL (≈ 0.0842 µM)
MIC ([5]; Staphylococcus aureus, read-out: MIC S. aureus (Pen-res.) A-9606): 0.03 µg/mL (≈ 0.0842 µM)
MIC ([6]; Enterococcus faecalis, A20688, tube dilution): 0.5 µg/mL (≈ 1.4 µM)
MIC ([7]; Escherichia coli, A15119, tube dilution): 0.03 µg/mL (≈ 0.0842 µM)
MIC ([8]; Escherichia coli, A203411, tube dilution): 0.03 µg/mL (≈ 0.0842 µM)
MIC ([9]; Klebsiella pneumoniae, A9664, tube dilution): 0.13 µg/mL (≈ 0.365 µM)
MIC ([10]; Klebsiella pneumoniae, A20468, tube dilution): 0.25 µg/mL (≈ 0.701 µM)
MIC ([11]; Proteus mirabilis, A9900, tube dilution): 0.13 µg/mL (≈ 0.365 µM)
MIC ([12]; Proteus vulgaris, A21559, tube dilution): 0.03 µg/mL (≈ 0.0842 µM)
MIC ([13]; Morganella morganii, A15153, tube dilution, read-out: MIC M. morganii A15153): 0.13 µg/mL (≈ 0.365 µM)
MIC ([14]; Providencia rettgeri, A22424, tube dilution): 0.5 µg/mL (≈ 1.4 µM)
MIC ([15]; Serratia marcescens, A20019, tube dilution): 0.06 µg/mL (≈ 0.168 µM)
MIC ([16]; Enterobacter cloacae, A9656, tube dilution): 0.5 µg/mL (≈ 1.4 µM)
MIC ([17]; Pseudomonas aeruginosa, A9843A): 63 µg/mL (≈ 177 µM)
MIC ([18]; Pseudomonas aeruginosa, A21213, tube dilution): 8 µg/mL (≈ 22.4 µM)
MIC ([19]; Enterobacter cloacae, A9659, tube dilution): 0.25 µg/mL (≈ 0.701 µM)
Cmax [21]: 16200 ng/mL
AUC [21]: 4800 ng·h/mL
half-life [21]: 8 min
dose excreted at 6 h [22]: 15 ± 3%
half-life ([1]; phosphate buffer, pH 7.4, pH 7.4, 36.8° C., read-out: t1/2 (solution stability) (converted)): 18.5 h
